The test system of the assay is A549. As to the kind of experiment: Cytotoxicity against human A549 cells after 72 hrs by SRB assay. It counts as functional. The settings on record: A549, 72 h. A general note: The SRB assay estimates cell density from bound dye.
Regarding `CC[C@H](C)C1=C(OC)[C@H](O)[C@](C)(CC)C1=O`, halving of growth (GI50) required 41.3 µM.
Regarding `O=c1[nH]cc(F)c(=O)[nH]1` [FLUOROURACIL], it took 3.6 µM to inhibit growth by half (GI50). Against the preceding compound, the GI50 is about 11-fold lower.
As to `CO[C@@H]1C(=O)CC[C@]2(CO2)[C@@]1(O)[C@@]1(C)O[C@@H]1CC=C(C)C` [OVALICIN], growth was halved (GI50) at 4.1 µM.

These data come from ChEMBL document CHEMBL2417502, “Polyketides from the littoral plant associated fungus Pseudallescheria boydii” (2013).
